Patent publication US20230000064A1, “OBSESSIVE-COMPULSIVE DISORDER ANIMAL MODEL AND PRODUCTION METHOD THEREOF” (KOREA UNIVERSITY RESEARCH AND BUSINESS FOUNDATION, priority 2019, published 2023)
“Also recorded” adds a separate entry of the source.

What was measured:
Type in all cases: in vivo
BLA-DMS neural circuit [1] = assay: Hole board test in mice with chemogenetically (hM3Dq/CNO) activated BLA-DMS circuit
Experimental: A solution of clozapine N-oxide (CNO; Tocris, Bristol, United Kingdom) in saline was intraperitoneally injected to mice. Taking into account the time it takes for the drug to act, the experiment was started after about 30 minutes. The drug was injected at a dose of 1 mg/kg at the same time every day.
As a control for CNO, saline was used. Saline was also intraperitoneally injected at the same volume and the experiments were conducted in the same condition as for the CNO group.
A square acrylic plate with 9 holes (3 cm in diameter) was made to be 30 cm wide and 30 cm long. A home base was constructed with a material different from the acryl plate. Based on the home base, water was placed on the right end of the acrylic plate, and 10% sucrose was placed on the other side. Afterward, a mouse was placed in the home base and monitored for 1 hour under a video camera. Remaining amounts of sucrose and water were recorded after completion of the test.
In the present disclosure, mice were divided into two groups: saline-administered and CNO-administered groups and subjected to the test at the same time every day for 18 days. After a four-day learning period, the fourth day was used as the base. During this period, the mice located the water and 10% sucrose on the hole board. Saline and CNO were administered to each group for a total of 12 days from the 5th day to the 16th day. On the 17th day, it was observed whether the OCD phenomenon was maintained even in the absence of administration of saline and CNO. Finally, on the 18th day, the mice were measured for cognitive flexibility after switching the positions of water and 10% sucrose. The video between the base and the 18th day (base to day 14) was analyzed. The analysis items included checking behavior (repetitive checking), repetitive nose poking (repetitively inserting the nose into the hole), excessive grooming (excessive washing—hair trimming), and flexibility (cognitive flexibility).
As an analysis method, the video was analyzed with the naked eye through the blind test. Through the blind test, the objectivity of the experiment was secured by preventing the experimenter from knowing about the saline-administered group and the CNO-administered group. A measurement was made of: the frequency of going to water and sucrose for the checking behavior (repetitive checking); the number of actions of inserting the nose into each hole for repetitive nose poking (repeatedly inserting the nose into the hole); the total length of grooming (duration) and the total number of times (frequency) of the start and end of grooming for excessive grooming (excessive washing—hair trimming); and the number of times to go to water and sucrose where the positions of the 18th day (day 14) were reversed, for the flexibility (cognitive flexibility).
AAV-retro Cre virus, which can make a retrograde infection, was injected to the DMS while AAV-DIO-hM3Dq, which specifically expresses Cre, was injected into the BLA. That is, advantage was taken of the principle that when the retrograde virus from the DMS expresses Cre in the neuron cell body (soma) of the BLA, the AAV-DIO-hM3Dq virus is induced to express hM3Dq thereat only in the presence of Cre. hM3Dq can activate neurons in cooperation with the membrane protein GPCR (G-protein-coupled receptors) upon stimulation with the drug CNO (clozapine n-oxide), whereby the specific activation of the BLA-DMS neural circuit can be achieved. After injecting different viruses into these two areas, it takes more than 4 weeks for the viruses to show their activities.
After 4 weeks, the learning process was performed for the first 4 days on the hole board without injection of CNO (clozapine n-oxide). During this process, the mice identify and remember the location of the water and 10% sucrose. The BLA-DMS circuit was continuously activated by injecting CNO (1 mg/kg) at the same time every day for 12 days, using the behavioral values of the 4th day as a reference. […]

BLA-DMS neural circuit [2] = assay: Hoarding test (two connected cages) in mice with activated BLA-DMS circuit; conditions: day 13 evening to day 14 morning, no administration; vs saline-administered group; FIGS. 12-14
Description: A tool was manufactured by connecting two cages, with a passage in the middle thereof. The cages each have a dimension of width 25 cm×length 20 cm×height 12 cm (Jeung Do PNP). For the passage, a PVC cylinder with a dimension of diameter 5 cm and length 19 cm was used. A hole with a diameter of 5 cm was drilled 1 cm above the bottom of each cage, and a sill was installed on the PVC so that the length of the passage was 9.5 cm when a PVC cylinder was inserted into the holes. Mice were placed one per cage. In order for the mouse to recognize one cage as a home cage, beddings were placed on only one cage and the other cage was left in the default state, and the passageway to the opposite side of the home cage was blocked for one day. Then the next evening, the food in the home cage was removed, foods and toys were placed on the other cage, and the blocked passage was opened. At this time, water was placed in the home cage. Differences between the groups were compared in how many food pellets and toys were brought to the home cage on the morning of the last day of the experiment. Quantification was made of the brought weight for food and the brought number for toys. […]

BLA-DMS neural circuit [3] = assay: Observation of hairs around the mouth after the tests; conditions: 20 days after the last test day; vs saline-administered mice; FIG. 15
Description: Additionally, after 20 days from the last day, it was observed that the hairs around the mouth of the Clozapine n-oxide (CNO)-administered mice fell out, compared to the saline-administered mice, indicating a phenotype caused by excessive grooming (see FIG. 15).

[4] = CNO 1 mg/kg i.p. daily vs saline, repeated 1-way ANOVA, FIG. 8

In the case of `C[N+]1([O-])CCN(C2=Nc3cc(Cl)ccc3Nc3ccccc32)CC1` [CNO, clozapine N-oxide], the “checking frequency of heading toward 10% sucrose” value (BLA-DMS neural circuit [1]; CNO 1 mg/kg i.p. daily for 12 days vs saline control, repeated 1-way ANOVA, FIG. 6) is reported as “significantly increased”, the “frequency of heading toward water (checking behavior)” value (BLA-DMS neural circuit [1]; CNO 1 mg/kg i.p. daily for 12 days vs saline-administered group, FIG. 6) is reported as “no difference” and the “repetitive nose poking frequency” value (BLA-DMS neural circuit [1]; CNO 1 mg/kg i.p. daily vs saline, repeated 1-way ANOVA, FIG. 7) is reported as “greatly increased”. For the same compound, the grooming frequency (BLA-DMS neural circuit [1]; [4]) was “significantly increased”, the “grooming time (duration)” value (BLA-DMS neural circuit [1]; [4]) was “significantly increased” and the “amount of 10% sucrose drank” value (BLA-DMS neural circuit [1]; CNO vs saline-administered group, FIG. 9) was “no difference”. For the same compound, the “obsessive-compulsive disorder (checking and nose poking) on day 13 without administration” value (BLA-DMS neural circuit [1]; day 13, saline and CNO not administered) was “maintained”, the “cognitive flexibility (times going to water and sucrose after positions swapped)” value (BLA-DMS neural circuit [1]; day 14 (18th day), vs saline-administered group, Student t-test, FIG. 10) was “significantly lower” and the “hoarding of food pellets brought to home cage” value (BLA-DMS neural circuit [2]) was “significantly increased”. The “hoarding of toys brought to home cage” value (BLA-DMS neural circuit [2]) was “significantly increased” and the “hairs around the mouth (phenotype caused by excessive grooming)” value (BLA-DMS neural circuit [3]) was “fell out; also recorded: disappear”.
